Where two headings read alike, the source gives them in different places.
Legend:
[1] = system: ES cells stably transfected with the α-MHC-SEAP vector (D3 mouse embryonic stem cells), differentiation into cardiac cells; settings: EB culture supernatants after 13 days
Procedure: After 13 days culture supernatants were assayed for SEAP activity. Shown are mean values of duplicate samples from which background SEAP activity was substracted. Activities are expressed as percentage of SEAP activity in samples containing only solvent (DMSO) but no retinoic acid.
All incubations of cell cultures were performed at 37° C. in a humidified atmosphere containing 5% CO2.
Cells were collected by centrifugation (800 g for 5 min) and resuspended in Iscove's Modified Dulbecco's Medium (IMDM, Invitrogen) supplemented with 20% (v/v) fetal bovine serum (FBS, Invitrogen) at a density of 2×10^6 cells/ml. To aggregate ES cells, 4 ml of this suspension were incubated on a 6 cm bacteriological dish (Greiner) on a rocking platform (GFL 3006) with agitation (50 rpm). After 6 hours, 2 ml of that culture were added to 13 ml IMDM containing 20% FBS in a T25 flask (Falcon). The flask was incubated with rocking (50 rpm; GFL 3006) for 18 hours. During this procedure ES cell aggregates (embryoid bodies; EBs) were formed.
In 10 cm petri dishes (bacteriological grade, Greiner) medium was prepared consisting of IMDM supplemented with 20% FBS and retinoic acid added from above stocks to yield final concentrations of 10^−7 M, 10^−8 M, 10^−9 M, 10^−10 M, 10^−11 M, and 10^−12 M retinoic acid, respectively. One dish received DMSO (final concentration 0.1% (v/v)) without retinoic acid (solvent control). Each dish contained 10 ml of medium. 70 EBs were transferred into each petri dish and incubated for 4 days.
Subsequently, EBs were transferred to 6-well plates (tissue culture grade; Becton-Dickinson). Each well contained 3 ml IMDM with 20% FBS and retinoic acid and DMSO as described above for the culture in 10 cm dishes. […]
Samples were assayed for SEAP activity using the Great EscAPe SEAP Fluorescence Detection Kit (Becton-Dickinson) following the manufacturer's instructions. Fluorescence was measured using a microplate reader (Safire, Tecan). Background activity was determined by assaying a sample of fresh medium (Knockout™ D-MEM supplemented with 20% (v/v) Knockout™ SR).

ES cells = settings: in vitro; literature (Seiler et al., ALTEX 2002); cited from earlier work

With `CC1=C(/C=C/C(C)=C/C=C/C(C)=C/C(=O)O)C(C)(C)CCC1` [retinoic acid, all-trans retinoic acid] the SEAP activity ([1]; 10^−8 M retinoic acid, solvent (DMSO) control) was “decreased sharply”, the SEAP activity ([1]; retinoic acid at concentrations higher than 10^−8 M (10^−7 M)) was “no activity was observed” and the “SEAP activity as compared to controls” value ([1]; retinoic acid below 10^−9 M, solvent (DMSO) control) was “no influence”. The “generation of cardiomyocytes from ES cells” value (ES cells) was “inhibit the generation of cardiomyocytes”.

Reference: patent US20090328243A1, “Secreted proteins as markers for cell differentiation” (priority 2003, published 2009)
